Source: ChEMBL document CHEMBL3885881, “DrugMatrix”

Organism: Rattus norvegicus
Assay: DrugMatrix - Regimen: Daily Repeat
Format: toxicity, organism-based, Sprague-Dawley
Parameters: regimen Daily Repeat, gender Male, age 6-8 weeks
Settings: in vivo, po, route oral GAVAGE, […]; for ABSOLUTE BASOPHIL / ABSOLUTE EOSINOPHIL / ABSOLUTE LYMPHOCYTE / ABSOLUTE MONOCYTE / ABSOLUTE SEGMENTED NEUTROPHIL / BASOPHIL / EOSINOPHIL / ERYTHROCYTE COUNT / HEMATOCRIT / HEMOGLOBIN / LEUKOCYTE COUNT / LYMPHOCYTE / MEAN CORPUSCULAR HEMOGLOBIN / MEAN CORPUSCULAR HEMOGLOBIN CONCENTRATION / MEAN CORPUSCULAR VOLUME / MONOCYTE / NEUTROPHIL / NUCLEATED RED BLOOD CELLS / PLATELET COUNT: tissue Blood; for ALANINE AMINOTRANSFERASE / ALBUMIN / ALKALINE PHOSPHATASE / ASPARTATE AMINOTRANSFERASE / BLOOD UREA NITROGEN / CARBON DIOXIDE / CHLORIDE / CHOLESTEROL / CREATINE PHOSPHOKINASE / CREATININE / GLUCOSE / LACTATE DEHYDROGENASE / LIPASE / PHOSPHORUS / POTASSIUM / SODIUM / TOTAL BILIRUBIN / TOTAL PROTEIN / URIC ACID: tissue Plasma
[1] = 5 mg/kg, 120 h, dose level Low, time 5 day
[2] = 50 mg/kg, 72 h, dose level High, time 3 day
[3] = 50 mg/kg, 120 h, dose level High, time 5 day

SMILES: O=C(Nc1ccc(Cl)c(Cl)c1)c1cc(Cl)cc(Cl)c1O [3,3',4',5-TETRACHLOROSALICYLANILIDE]
- ABSOLUTE BASOPHIL [1]: 0 CELLS/uL
- ABSOLUTE EOSINOPHIL [1]: 0 CELLS/uL
- ABSOLUTE LYMPHOCYTE [1]: 11308.33 CELLS/uL
- ABSOLUTE MONOCYTE [1]: 94.67 CELLS/uL
- ABSOLUTE SEGMENTED NEUTROPHIL [1]: 1830.33 CELLS/uL
- BASOPHIL [1]: 0%
- EOSINOPHIL [1]: 0%
- ERYTHROCYTE COUNT [1]: 5.77 x10E6/uL
- HEMATOCRIT [1]: 35.8%
- HEMOGLOBIN [1]: 13.8 G/DL
- LEUKOCYTE COUNT [1]: 13.23 x10E3/uL
- LYMPHOCYTE [1]: 85.33%
- MEAN CORPUSCULAR HEMOGLOBIN [1]: 23.93 pg
- MEAN CORPUSCULAR HEMOGLOBIN CONCENTRATION [1]: 38.53 G/DL
- MEAN CORPUSCULAR VOLUME [1]: 62.1 fL
- MONOCYTE [1]: 0.67%
- NEUTROPHIL [1]: 14%
- NUCLEATED RED BLOOD CELLS [1]: 0.33 /100WBC
- PLATELET COUNT [1]: 1151 x10E3/uL
- ALANINE AMINOTRANSFERASE [1]: 59 u/L
- ALBUMIN [1]: 4.07 G/DL
- ALKALINE PHOSPHATASE [1]: 368.33 u/L
- ASPARTATE AMINOTRANSFERASE [1]: 97.67 u/L
- BLOOD UREA NITROGEN [1]: 14.33 mg/dL
- CARBON DIOXIDE [1]: 28.67 mmol/L
- CHLORIDE [1]: 101.33 MEQ/L
- CHOLESTEROL [1]: 63.33 mg/dL
- CREATINE PHOSPHOKINASE [1]: 534.67 u/L
- CREATININE [1]: 0.21 mg/dL
- GLUCOSE [1]: 164 mg/dL
- LACTATE DEHYDROGENASE [1]: 242 u/L
- LIPASE [1]: 11.33 u/L
- PHOSPHORUS [1]: 10.3 mg/dL
- POTASSIUM [1]: 5.94 MEQ/L
- SODIUM [1]: 143.17 MEQ/L
- TOTAL BILIRUBIN [1]: 0.13 mg/dL
- TOTAL PROTEIN [1]: 5.77 G/DL
- URIC ACID [1]: 1.63 mg/dL
- ABSOLUTE BASOPHIL [2]: 0 CELLS/uL
- ABSOLUTE EOSINOPHIL [2]: 28.67 CELLS/uL
- ABSOLUTE LYMPHOCYTE [2]: 9453.33 CELLS/uL
- ABSOLUTE MONOCYTE [2]: 0 CELLS/uL
- ABSOLUTE SEGMENTED NEUTROPHIL [2]: 884.67 CELLS/uL
- BASOPHIL [2]: 0%
- EOSINOPHIL [2]: 0.33%
- ERYTHROCYTE COUNT [2]: 5.84 x10E6/uL
- HEMATOCRIT [2]: 36.23%
- HEMOGLOBIN [2]: 13.87 G/DL
- LEUKOCYTE COUNT [2]: 10.37 x10E3/uL
- LYMPHOCYTE [2]: 91%
- MEAN CORPUSCULAR HEMOGLOBIN [2]: 23.83 pg
- MEAN CORPUSCULAR HEMOGLOBIN CONCENTRATION [2]: 38.33 G/DL
- MEAN CORPUSCULAR VOLUME [2]: 62.23 fL
- MONOCYTE [2]: 0%
- NEUTROPHIL [2]: 8.67%
- NUCLEATED RED BLOOD CELLS [2]: 0 /100WBC
- PLATELET COUNT [2]: 1272.33 x10E3/uL
- ALANINE AMINOTRANSFERASE [2]: 61.67 u/L
- ALBUMIN [2]: 4.1 G/DL
- ALKALINE PHOSPHATASE [2]: 432.67 u/L
- ASPARTATE AMINOTRANSFERASE [2]: 89.67 u/L
- BLOOD UREA NITROGEN [2]: 13.33 mg/dL
- CARBON DIOXIDE [2]: 31 mmol/L
- CHLORIDE [2]: 101.67 MEQ/L
- CHOLESTEROL [2]: 79.67 mg/dL
- CREATINE PHOSPHOKINASE [2]: 183.67 u/L
- CREATININE [2]: 0.21 mg/dL
- GLUCOSE [2]: 125.67 mg/dL
- LACTATE DEHYDROGENASE [2]: 128.33 u/L
- LIPASE [2]: 11.33 u/L
- PHOSPHORUS [2]: 10.67 mg/dL
- POTASSIUM [2]: 6.23 MEQ/L
- SODIUM [2]: 144.27 MEQ/L
- TOTAL BILIRUBIN [2]: 0.2 mg/dL
- TOTAL PROTEIN [2]: 5.8 G/DL
- URIC ACID [2]: 1.03 mg/dL
- ABSOLUTE BASOPHIL [3]: 0 CELLS/uL
- ABSOLUTE EOSINOPHIL [3]: 19.33 CELLS/uL
- ABSOLUTE LYMPHOCYTE [3]: 5934.67 CELLS/uL
- ABSOLUTE MONOCYTE [3]: 58 CELLS/uL
- ABSOLUTE SEGMENTED NEUTROPHIL [3]: 688 CELLS/uL
- BASOPHIL [3]: 0%
- EOSINOPHIL [3]: 0.33%
- ERYTHROCYTE COUNT [3]: 6.18 x10E6/uL
- HEMATOCRIT [3]: 36.87%
- HEMOGLOBIN [3]: 14 G/DL
- LEUKOCYTE COUNT [3]: 6.7 x10E3/uL
- LYMPHOCYTE [3]: 88.33%
- MEAN CORPUSCULAR HEMOGLOBIN [3]: 22.73 pg
- MEAN CORPUSCULAR HEMOGLOBIN CONCENTRATION [3]: 38.03 G/DL
- MEAN CORPUSCULAR VOLUME [3]: 59.67 fL
- MONOCYTE [3]: 0.67%
- NEUTROPHIL [3]: 10.67%
- NUCLEATED RED BLOOD CELLS [3]: 0 /100WBC
- PLATELET COUNT [3]: 1091 x10E3/uL
- ALANINE AMINOTRANSFERASE [3]: 49.33 u/L
- ALBUMIN [3]: 4.27 G/DL
- ALKALINE PHOSPHATASE [3]: 412 u/L
- ASPARTATE AMINOTRANSFERASE [3]: 76 u/L
- BLOOD UREA NITROGEN [3]: 15.67 mg/dL
- CARBON DIOXIDE [3]: 32 mmol/L
- CHLORIDE [3]: 101 MEQ/L
- CHOLESTEROL [3]: 77.33 mg/dL
- CREATINE PHOSPHOKINASE [3]: 289 u/L
- CREATININE [3]: 0.25 mg/dL
- GLUCOSE [3]: 133.33 mg/dL
- LACTATE DEHYDROGENASE [3]: 94.67 u/L
- LIPASE [3]: 11.67 u/L
- PHOSPHORUS [3]: 9.23 mg/dL
- POTASSIUM [3]: 5.61 MEQ/L
- SODIUM [3]: 145.93 MEQ/L
- TOTAL BILIRUBIN [3]: 0.13 mg/dL
- TOTAL PROTEIN [3]: 6.07 G/DL
- URIC ACID [3]: 1.03 mg/dL
